Square brackets hold non-standard residues; d marks the D form. Peptide text beside a SMILES is read from it. NMeY = CN[C@@H](Cc1ccc(O)cc1)C(=O)O; αMeF = C[C@](N)(Cc1ccccc1)C(=O)O; Aib = CC(C)(N)C(=O)O
Tests used:
human glucagon R = target: T1, human glucagon R (Homo sapiens, UniProt P47871); assay: Reporter assay of human glucagon R agonist activity, rise in intracellular cAMP as index (hGlucagonR/CRE-LUC/CHO-K1 cells); format: cell-based; settings: luciferase reporter; 10 nM glucagon = 100%, DMSO = 0%; 4 hours incubation; read-out: Agonist activity (EC50) hGCGR
T1 construct: expressed in transfected cells; host or cells: CHO-K1 (CRE-LUC/CHO-K1 reporter cells)
Source text: Evaluation of agonist activity against human GIPR, human GLP-1R and human glucagon R using rise in intracellular cAMP concentration as index
(2) Construction of Reporter Plasmid-Expressing Cell
The luciferase reporter gene having an upstream cAMP response sequence was introduced to CHO-K1 cells to construct CRE-LUC/CHO-K1 cells.
(7) Construction of Expression Plasmid for the Human Glucagon R Gene
The human glucagon R gene having a sequence identical to the sequence of GenBank Accession No. NM_000160 was cloned into pMSRα-neo vector to prepare hGlucagonR/pMSRα-neo.
(8) Introduction of the Human Glucagon R Gene into CRE-LUC/CHO-K1 Cell and Obtainment of Expressing Cell […]
The hGIPR/CRE-LUC/CHO-K1 cells were inoculated at a cell density of 25 μL/well (5×10^4 cells/well) to a 384-well white plate (Corning), and cultured overnight in Ham F12 medium containing 10% fetal bovine serum, 100 U/mL penicillin and 100 μg/mL streptomycin in a CO2 incubator of 37° C. […] After 30 minutes, the luciferase activity was measured using a plate reader Envision (PerkinElmer). […] The GIPR agonist activity was calculated with a rise in intracellular cAMP concentration as an index.
The glucagon R agonist activity was assayed in the same way as above using the hGlucagonR/CRE-LUC/CHO-K1 cells. […] The glucagon agonist activity was calculated with a rise in intracellular cAMP concentration as an index.

male C57BL/6J mouse = assay: 2-days continuous subcutaneous administration test (feeding suppressive activity); format: in vivo; settings: 10 nmol/kg/day, subcutaneous Alzet pump, 2-days cumulative food consumption, control (solvent alone) = 0%
How it was run: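 Male C57BL/6J mice, 8-9 weeks, given test compound at 10 nmol/kg/day by subcutaneously implanted osmotic pump (50% DMSO vehicle), housed singly with free food access. Cumulative 2-day food consumption measured; suppression rate (%) calculated relative to vehicle-only controls.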

[1] = tested on: Diet-induced obesity (DIO) male C57BL/6J mice; assay: 2-weeks continuous subcutaneous administration study in DIO mice (anti-obesity activity); format: in vivo, mouse; settings: 1 nmol/kg/day, subcutaneous Alzet pump, 2 weeks after start of administration; rate of weight loss, control group regarded as 0%
Protocol: 2-Weeks Continuous Subcutaneous Administration Study in DIO Mice
The anti-obesity activity of a test compound was examined by the method described below.
Diet-induced obesity (DIO) mice were prepared by feeding male C57BL/6J mice with high-fat diet (D12451: Research Diets, Inc.). The test compound was dissolved in a solvent (50% DMSO) so that sustained release would occur at 1 nmol/kg/day, and the solution was filled in the Alzet Pump (DURECT Corporation, model: 1002). The pump thus filled with the solution to be administered was immersed in physiological saline for priming, and then used. The pump was embedded by the following method. Each male DIO-C57BL/6J mouse at 35-37 weeks of age (20-26° C., allowed to take food and water ad libitum; 12-hour bright-12-hour dark cycle) was anesthetized; the skin in the upper back thereof was incised, and the above-mentioned pump was embedded subcutaneously; the incision was sutured. After weighing, this mouse was returned to the rearing cage (reared alone), and given previously weighed food; the body weight was measured every 1 to 3 days after the start of administration. The anti-obesity activity of each test compound was evaluated on the basis of the rate of weight loss 2 weeks after the start of administration, with the rate of weight loss in a control group receiving administration of the solvent alone regarded as 0%.

T1 sequence (P47871 26-477): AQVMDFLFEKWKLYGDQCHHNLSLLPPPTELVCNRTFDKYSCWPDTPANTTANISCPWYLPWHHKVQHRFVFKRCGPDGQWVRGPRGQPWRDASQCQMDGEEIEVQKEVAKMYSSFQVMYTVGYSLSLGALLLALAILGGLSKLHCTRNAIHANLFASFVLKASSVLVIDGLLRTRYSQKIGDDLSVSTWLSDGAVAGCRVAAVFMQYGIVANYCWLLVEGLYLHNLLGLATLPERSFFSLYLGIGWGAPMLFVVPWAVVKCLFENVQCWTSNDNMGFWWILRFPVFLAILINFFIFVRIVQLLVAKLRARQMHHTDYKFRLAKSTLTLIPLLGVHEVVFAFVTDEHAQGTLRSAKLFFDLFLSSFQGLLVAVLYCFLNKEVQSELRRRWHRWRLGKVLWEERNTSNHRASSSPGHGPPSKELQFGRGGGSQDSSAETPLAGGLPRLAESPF

SMILES	EC50 (human glucagon R)	Food intake suppression (%) (male C57BL/6J mouse)	Change in body weight [1]
CC[C@H](C)[C@H](NC(=O)C(C)(C)NC(=O)[C@H](Cc1ccc(O)cc1)NC(=O)[C@H](CC(=O)O)NC(=O)[C@H](CO)NC(=O)[C@@H](NC(=O)[C@](C)(Cc1ccccc1)NC(=O)[C@@H](NC(=O)CNC(=O)[C@H](CCC(=O)O)NC(=O)C(C)(C)NC(=O)[C@H](Cc1ccc(O)cc1)NC)[C@@H](C)O)[C@@H](C)O)C(=O)NC(C)(C)C(=O)N[C@@H](CC(C)C)C(=O)N[C@@H](CC(=O)O)C(=O)N[C@@H](CCCCN)C(=O)N[C@@H](CCC(N)=O)C(=O)N[C@@H](C)C(=O)N[C@@H](CCC(N)=O)C(=O)N[C@@H](C)C(=O)N[C@@H](CCC(=O)O)C(=O)N[C@@H](Cc1ccccc1)C(=O)N[C@H](C(=O)N[C@@H](CCCCN)C(=O)N[C@@H](Cc1c[nH]c2ccccc12)C(=O)N[C@@H](CC(C)C)C(=O)N[C@@H](CC(C)C)C(=O)N[C@@H](CCCCN)C(=O)NCC(=O)NCC(=O)N1CCC[C@H]1C(=O)N[C@@H](CO)C(=O)N[C@@H](CO)C(=O)NCC(=O)N[C@@H](C)C(=O)N1CCC[C@H]1C(=O)N1CCC[C@H]1C(=O)N1CCC[C@H]1C(=O)N[C@@H](CO)C(=O)N[C@@H](CCCCN)C(N)=O)C(C)C [Example 23] (H-[NMeY][Aib]EGT[αMeF]TSDY[Aib]I[Aib]LDKQAQAEFVKWLLKGGPSSGAPPPSK-NH2)	> 1 µM	52.62%	–
CC(C)C[C@H](NC(=O)[C@H](CC(C)C)NC(=O)[C@H](Cc1c[nH]c2ccccc12)NC(=O)[C@H](CCCCN)NC(=O)[C@@H](NC(=O)[C@H](Cc1ccccc1)NC(=O)[C@H](CCC(=O)O)NC(=O)[C@H](C)NC(=O)[C@H](CCC(N)=O)NC(=O)[C@H](C)NC(=O)[C@H](CCC(N)=O)NC(=O)[C@H](CCCCN)NC(=O)[C@H](CC(=O)O)NC(=O)[C@H](CC(C)C)NC(=O)[C@H](Cc1ccc(O)cc1)NC(=O)[C@H](CCCCN)NC(=O)C(C)(C)NC(=O)[C@H](Cc1ccc(O)cc1)NC(=O)[C@H](CC(=O)O)NC(=O)[C@H](CO)NC(=O)[C@@H](NC(=O)[C@](C)(Cc1ccccc1)NC(=O)[C@@H](NC(=O)CNC(=O)[C@H](CCC(=O)O)NC(=O)C(C)(C)NC(=O)[C@@H](N)Cc1ccc(O)cc1)[C@@H](C)O)[C@@H](C)O)C(C)C)C(=O)N[C@@H](CCCCN)C(=O)NCC(=O)NCC(=O)N1CCC[C@H]1C(=O)N[C@@H](CO)C(=O)N[C@@H](CO)C(=O)NCC(=O)N[C@@H](C)C(=O)N1CCC[C@H]1C(=O)N1CCC[C@H]1C(=O)N1CCC[C@H]1C(=O)N[C@@H](CO)C(=O)N[C@@H](CCCCN)C(N)=O [Example 24] (H-Y[Aib]EGT[αMeF]TSDY[Aib]KYLDKQAQAEFVKWLLKGGPSSGAPPPSK-NH2)	–	54.18%	−11.1
CC(C)C[C@H](NC(=O)[C@H](CC(C)C)NC(=O)[C@H](Cc1c[nH]c2ccccc12)NC(=O)[C@H](CCCCN)NC(=O)[C@@H](NC(=O)[C@H](Cc1ccccc1)NC(=O)[C@H](CCC(=O)O)NC(=O)[C@H](CCC(N)=O)NC(=O)[C@H](CCC(N)=O)NC(=O)[C@H](C)NC(=O)[C@H](CCC(N)=O)NC(=O)[C@H](CCCCN)NC(=O)[C@H](CC(=O)O)NC(=O)[C@H](CC(C)C)NC(=O)[C@H](Cc1ccc(O)cc1)NC(=O)[C@H](CCCCN)NC(=O)C(C)(C)NC(=O)[C@H](Cc1ccc(O)cc1)NC(=O)[C@H](CC(=O)O)NC(=O)[C@H](CO)NC(=O)[C@@H](NC(=O)[C@](C)(Cc1ccccc1)NC(=O)[C@@H](NC(=O)CNC(=O)[C@H](CCC(=O)O)NC(=O)C(C)(C)NC(=O)[C@@H](N)Cc1ccc(O)cc1)[C@@H](C)O)[C@@H](C)O)C(C)C)C(=O)N[C@@H](CCCCN)C(=O)NCC(=O)NCC(=O)N1CCC[C@H]1C(=O)N[C@@H](CO)C(=O)N[C@@H](CO)C(=O)NCC(=O)N[C@@H](C)C(=O)N1CCC[C@H]1C(=O)N1CCC[C@H]1C(=O)N1CCC[C@H]1C(=O)N[C@@H](CO)C(=O)N[C@@H](CCCCN)C(N)=O [Example 25] (H-Y[Aib]EGT[αMeF]TSDY[Aib]KYLDKQAQQEFVKWLLKGGPSSGAPPPSK-NH2)	–	53.12%	−11.2
CC(C)C[C@H](NC(=O)[C@H](CC(C)C)NC(=O)[C@H](Cc1c[nH]c2ccccc12)NC(=O)[C@H](CCCCN)NC(=O)[C@@H](NC(=O)[C@H](Cc1ccccc1)NC(=O)[C@H](CCC(=O)O)NC(=O)[C@H](CCC(N)=O)NC(=O)[C@H](CCC(N)=O)NC(=O)[C@H](C)NC(=O)[C@H](CCC(N)=O)NC(=O)[C@H](CCCCN)NC(=O)[C@H](CC(=O)O)NC(=O)[C@H](CC(C)C)NC(=O)[C@H](Cc1ccc(O)cc1)NC(=O)[C@H](CCCCN)NC(=O)C(C)(C)NC(=O)[C@H](Cc1ccc(O)cc1)NC(=O)[C@H](CC(=O)O)NC(=O)[C@H](CO)NC(=O)[C@@H](NC(=O)[C@](C)(Cc1ccccc1)NC(=O)[C@@H](NC(=O)CNC(=O)[C@H](CCC(=O)O)NC(=O)C(C)(C)NC(=O)[C@@H](N)Cc1ccc(O)cc1)[C@@H](C)O)[C@@H](C)O)C(C)C)C(=O)N[C@@H](CCCCN)C(=O)NCC(=O)NCC(=O)N1CCC[C@H]1C(=O)N[C@@H](CO)C(=O)N[C@@H](CO)C(=O)NCC(=O)N[C@@H](C)C(=O)N1CCC[C@H]1C(=O)N1CCC[C@H]1C(=O)N1CCC[C@H]1C(=O)N[C@@H](CO)C(N)=O [Example 26] (H-Y[Aib]EGT[αMeF]TSDY[Aib]KYLDKQAQQEFVKWLLKGGPSSGAPPPS-NH2)	–	53.06%	−16.2
